The results in this text go back to patent US20250214991A1 (Oncopia Therapeutics, Inc. d/b/a/ SK Life Science Labs, priority 2022, published 2025).

For orientation: IC50 means the midpoint of a concentration-inhibition curve. For orientation: DC50 means the midpoint of the concentration-degradation curve. A higher DC50 goes with a less potent degrader. For orientation: Dmax means the greatest extent of degradation seen. High values mean a fuller loss of target, low ones a partial loss of target.

One assay addresses CRBN/DDB1 (Homo sapiens (Human), UniProt Q96SW2). As to the kind of experiment: IC50 measurements for binding to CRBN/DDB1 (HTRF). As to conditions: His tagged CRBN+DDB, Cy5-labeled Thalidomide probe, one hour. Summed up: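 HTRF competition binding with 2 nM His-tagged CRBN-DDB1 complex, 60 nM Cy5-thalidomide probe and 0.4 nM anti-His Tb cryptate in 50 mM HEPES pH 7.5, 1 mM TCEP, 0.01% Brij-35, 50 mM NaCl, 0.1% BSA. Read after 1 h at room temperature; IC50 from four-parameter dose-response fit.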
Background: Time-resolved FRET reads energy transfer from a long-lived donor to a nearby acceptor.

The target of another assay is IKZF2 (Homo sapiens (Human), UniProt Q96SW2+Q9UKS7). As to the kind of experiment: In vitro IKZF2 FACS Assay in Jurkat cells. As to conditions: 24 hrs; for DC50: half maximal degradation concentration; for Dmax: maximal degradation percentage. In kind it is cell-based. The method, then:
In vitro IKZF2 FACS Assay
DC50, A: <1 nM; B: 1-10 nM; C: 10-100 nM; D: 100-1000 nM; E: >1000 nM. Dmax, A: >80%; B: 60-80%; C: 40-60%; D: 20-40%; E: <20%.

Where only a bound is given, the exact number is not on record here.

Chain of CRBN/DDB1 (Q96SW2 whole entry, species assumed): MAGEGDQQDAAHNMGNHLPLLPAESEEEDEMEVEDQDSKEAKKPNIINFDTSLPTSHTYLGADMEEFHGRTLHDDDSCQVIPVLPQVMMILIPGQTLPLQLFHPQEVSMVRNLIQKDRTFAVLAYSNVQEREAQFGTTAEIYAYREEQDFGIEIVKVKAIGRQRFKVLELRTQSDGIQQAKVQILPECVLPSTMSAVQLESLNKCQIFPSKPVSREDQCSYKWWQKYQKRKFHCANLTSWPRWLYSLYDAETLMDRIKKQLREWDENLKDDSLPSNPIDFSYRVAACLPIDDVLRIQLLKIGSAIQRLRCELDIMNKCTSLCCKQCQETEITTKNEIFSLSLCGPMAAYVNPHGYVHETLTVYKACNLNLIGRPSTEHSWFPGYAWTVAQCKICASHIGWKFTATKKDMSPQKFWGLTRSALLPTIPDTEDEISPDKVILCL
Chain of CRBN/DDB1 (Q16531 whole entry partner, species assumed): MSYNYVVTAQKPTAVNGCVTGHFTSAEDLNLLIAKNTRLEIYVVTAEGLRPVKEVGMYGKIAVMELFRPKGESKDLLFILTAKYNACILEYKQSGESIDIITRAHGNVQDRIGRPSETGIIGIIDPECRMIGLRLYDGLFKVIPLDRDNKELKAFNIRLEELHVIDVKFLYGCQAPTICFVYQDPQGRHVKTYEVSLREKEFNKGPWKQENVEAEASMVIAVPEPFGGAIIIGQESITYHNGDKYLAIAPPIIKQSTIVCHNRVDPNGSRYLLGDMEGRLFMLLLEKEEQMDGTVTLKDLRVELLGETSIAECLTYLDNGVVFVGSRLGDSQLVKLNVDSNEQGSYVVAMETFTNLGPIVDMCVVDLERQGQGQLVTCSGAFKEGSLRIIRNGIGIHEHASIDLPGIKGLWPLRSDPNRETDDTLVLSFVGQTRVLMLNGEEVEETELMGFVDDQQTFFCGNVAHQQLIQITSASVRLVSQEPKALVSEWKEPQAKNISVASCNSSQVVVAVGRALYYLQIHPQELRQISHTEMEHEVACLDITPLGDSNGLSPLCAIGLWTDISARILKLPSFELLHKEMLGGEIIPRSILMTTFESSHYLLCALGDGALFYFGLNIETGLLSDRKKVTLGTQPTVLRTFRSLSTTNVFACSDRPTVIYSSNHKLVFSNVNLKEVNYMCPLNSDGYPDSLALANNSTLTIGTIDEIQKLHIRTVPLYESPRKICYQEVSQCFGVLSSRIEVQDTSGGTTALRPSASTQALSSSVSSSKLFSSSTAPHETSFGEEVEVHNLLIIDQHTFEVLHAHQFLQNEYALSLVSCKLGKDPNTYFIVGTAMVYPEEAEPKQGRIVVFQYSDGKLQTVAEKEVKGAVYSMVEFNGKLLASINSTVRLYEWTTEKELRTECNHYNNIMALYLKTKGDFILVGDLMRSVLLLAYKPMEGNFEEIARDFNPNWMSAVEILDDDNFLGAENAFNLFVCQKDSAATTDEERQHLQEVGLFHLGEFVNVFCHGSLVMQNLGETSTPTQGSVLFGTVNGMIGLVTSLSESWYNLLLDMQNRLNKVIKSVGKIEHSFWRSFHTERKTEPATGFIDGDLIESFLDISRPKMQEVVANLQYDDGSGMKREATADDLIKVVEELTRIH
Chain of IKZF2 (Q9UKS7 whole entry): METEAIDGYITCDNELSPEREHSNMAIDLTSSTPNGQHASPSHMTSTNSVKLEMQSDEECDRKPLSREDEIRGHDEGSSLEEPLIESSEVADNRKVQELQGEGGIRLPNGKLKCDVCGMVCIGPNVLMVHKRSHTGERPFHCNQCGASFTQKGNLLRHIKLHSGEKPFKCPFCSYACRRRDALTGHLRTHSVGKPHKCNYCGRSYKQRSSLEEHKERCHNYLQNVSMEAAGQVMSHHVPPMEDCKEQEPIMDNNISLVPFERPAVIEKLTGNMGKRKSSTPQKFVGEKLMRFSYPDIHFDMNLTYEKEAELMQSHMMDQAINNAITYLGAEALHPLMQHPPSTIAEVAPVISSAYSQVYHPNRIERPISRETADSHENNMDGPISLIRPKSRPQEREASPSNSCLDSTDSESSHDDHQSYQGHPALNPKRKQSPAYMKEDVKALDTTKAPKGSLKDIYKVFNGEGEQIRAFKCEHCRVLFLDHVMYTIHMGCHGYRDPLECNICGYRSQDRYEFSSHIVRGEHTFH
Chain of IKZF2 (Q96SW2 whole entry): as the sequence (Q96SW2 whole entry, species assumed) above
Chain of IKZF2 (Q16531 2-1140 partner): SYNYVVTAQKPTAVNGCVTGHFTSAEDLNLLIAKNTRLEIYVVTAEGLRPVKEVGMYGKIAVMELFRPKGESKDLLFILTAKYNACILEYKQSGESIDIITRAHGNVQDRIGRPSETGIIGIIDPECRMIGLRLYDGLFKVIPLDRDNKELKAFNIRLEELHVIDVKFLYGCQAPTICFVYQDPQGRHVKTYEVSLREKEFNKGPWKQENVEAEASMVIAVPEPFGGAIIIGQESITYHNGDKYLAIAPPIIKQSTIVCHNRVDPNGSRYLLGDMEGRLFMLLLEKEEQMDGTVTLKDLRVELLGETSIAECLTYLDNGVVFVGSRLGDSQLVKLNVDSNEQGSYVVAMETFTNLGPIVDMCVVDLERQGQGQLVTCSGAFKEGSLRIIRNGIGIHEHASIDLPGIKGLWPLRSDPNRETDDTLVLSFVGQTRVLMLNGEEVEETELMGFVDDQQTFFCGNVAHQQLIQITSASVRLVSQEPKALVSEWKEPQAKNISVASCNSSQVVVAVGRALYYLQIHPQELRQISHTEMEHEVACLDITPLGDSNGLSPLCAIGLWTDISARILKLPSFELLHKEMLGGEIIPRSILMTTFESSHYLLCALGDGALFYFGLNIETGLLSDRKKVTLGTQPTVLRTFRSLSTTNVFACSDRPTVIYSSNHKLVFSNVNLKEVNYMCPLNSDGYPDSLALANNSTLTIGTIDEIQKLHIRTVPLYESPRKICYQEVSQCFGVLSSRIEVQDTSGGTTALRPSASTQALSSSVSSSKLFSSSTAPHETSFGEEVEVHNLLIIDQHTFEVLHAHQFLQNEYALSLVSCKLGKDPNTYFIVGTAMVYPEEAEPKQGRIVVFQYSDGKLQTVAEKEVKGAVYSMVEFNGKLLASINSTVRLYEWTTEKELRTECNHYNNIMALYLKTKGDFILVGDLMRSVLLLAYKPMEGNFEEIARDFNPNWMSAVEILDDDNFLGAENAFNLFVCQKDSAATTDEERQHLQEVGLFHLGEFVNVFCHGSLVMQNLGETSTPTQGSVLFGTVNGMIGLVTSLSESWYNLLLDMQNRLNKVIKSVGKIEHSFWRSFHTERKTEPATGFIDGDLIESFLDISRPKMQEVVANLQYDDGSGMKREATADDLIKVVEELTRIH

For the molecule `CC1CCCN(Cc2cc(-c3ccc4c(c3)CN(C3CCC(=O)NC3=O)C4=O)n3cncc3c2)C1` (stereo not drawn) [Example 5, 3-(5-(7-((3-methylpiperidin-1-yl)methyl)imidazo[1,5-a]pyridin-5-yl)-1-oxoisoindolin-2-yl) piperidine-2,6-dione], the IC50 at CRBN/DDB1 lay in the range of 1000 to 5000 nM. At IKZF2, this molecule registered a DC50 of 10 to 100 nM and a Dmax of 40 to 60%.

`O=C1CCC(N2Cc3cc(-c4cc(CN5CC6CC6C5)cc5cncn45)ccc3C2=O)C(=O)N1` (stereo not drawn) [Example 7, 3-(5-(7-((3-azabicyclo[3.1.0]hexan-3-yl)methyl)imidazo[1,5-a]pyridin-5-yl)-1-oxoisoindolin-2-yl) piperidine-2,6-dione] yielded an IC50 at CRBN/DDB1 of 500 to 1000 nM. At IKZF2, this molecule registered a DC50 of 10 to 100 nM and a Dmax of 40 to 60%.

On CRBN/DDB1, `O=C1CCC(N2Cc3cc(-c4cc(CN5CCC6(CCC6)CC5)cc5cncn45)ccc3C2=O)C(=O)N1` (stereo not drawn) [Example 9, 3-(5-(7-((7-azaspiro[3.5]nonan-7-yl)methyl)imidazo[1,5-a]pyridin-5-yl)-1-oxoisoindolin-2-yl) piperidine-2,6-dione] registered an IC50 of 500 to 1000 nM. In addition, on IKZF2, the DC50 lay in the range of 10 to 100 nM and the Dmax lay in the range of 40 to 60%.

At CRBN/DDB1, `O=C1CCC(N2Cc3cc(-c4cc(CN5CC6COCC(C6)C5)cc5cncn45)ccc3C2=O)C(=O)N1` (stereo not drawn) [Example 11] registered an IC50 of 500 to 1000 nM. Moreover, at IKZF2, the DC50 lay in the range of 100 to 1000 nM and the Dmax is 40 to 60%.

As for `CCN(CC)Cc1cc(-c2ccc3c(c2)CN(C2CCC(=O)NC2=O)C3=O)n2cncc2c1` (stereo not drawn) [Example 12, 3-(5-(7-((diethylamino)methyl)imidazo[1,5-a]pyridin-5-yl)-1-oxoisoindolin-2-yl) piperidine-2,6-dione], at CRBN/DDB1, the IC50 was in the range of 100 to 500 nM. For the same molecule, on IKZF2, the DC50 was in the range of 100 to 1000 nM and the Dmax lay within 40 to 60%.

`O=C1CCC(N2Cc3cc(-c4cc(CNCc5ccccc5)cc5cncn45)ccc3C2=O)C(=O)N1` (stereo not drawn) [Example 13, 3-(5-(7-((benzylamino)methyl)imidazo[1,5-a]pyridin-5-yl)-1-oxoisoindolin-2-yl) piperidine-2,6-dione]: the IC50 at CRBN/DDB1 was in the range of 100 to 500 nM. Moreover, on IKZF2, the DC50 was in the range of 10 to 100 nM and the Dmax fell in the range of 20 to 40%.

In the case of `CC(C)(NCc1cc(-c2ccc3c(c2)CN(C2CCC(=O)NC2=O)C3=O)n2cncc2c1)c1ccccc1` (stereo not drawn) [Example 18, 3-(1-oxo-5-(7-(((2-phenylpropan-2-yl)amino)methyl)imidazo[1,5-a]pyridin-5-yl)isoindolin-2-yl) piperidine-2,6-dione], the IC50 on CRBN/DDB1 lay in the range of 500 to 1000 nM. Besides, at IKZF2, the half-maximal degradation concentration (DC50) was in the range of 100 to 1000 nM and the Dmax lay in the range of 40 to 60%.

`CN(Cc1cc(-c2ccc3c(c2)CN(C2CCC(=O)NC2=O)C3=O)n2cncc2c1)C(C)(C)c1ccccc1` (stereo not drawn) [Example 19, 3-(5-(7-((methyl (2-phenylpropan-2-yl)amino)methyl)imidazo[1,5-a]pyridin-5-yl)-1-oxoisoindolin-2-yl) piperidine-2,6-dione] showed an IC50 at CRBN/DDB1 of 1000 to 5000 nM. On IKZF2, the 50% degradation concentration (DC50) lay in the range of 100 to 1000 nM and the greatest degradation seen (Dmax) lay within 20 to 40%.

In the case of `CC(NCc1cc(-c2ccc3c(c2)CN(C2CCC(=O)NC2=O)C3=O)n2cncc2c1)c1cccc(Cl)c1` (stereo not drawn) [Example 20, 3-(5-(7-(((1-(3-chlorophenyl)ethyl)amino)methyl)imidazo[1,5-a]pyridin-5-yl)-1-oxoisoindolin-2-yl) piperidine-2,6-dione], at CRBN/DDB1, the IC50 is 1000 to 5000 nM. On IKZF2, the DC50 fell in the range of 10 to 100 nM and the Dmax was 20 to 40%.

Regarding `Cc1ccc(CCNCc2cc(-c3ccc4c(c3)CN(C3CCC(=O)NC3=O)C4=O)n3cncc3c2)cc1Cl` (stereo not drawn) [Example 22], the IC50 at CRBN/DDB1 was in the range of 1000 to 5000 nM. In addition, at IKZF2, the DC50 was over 1000 nM and the Dmax was in the range of 20 to 40%.

In turn, `CC(NCc1cc(-c2ccc3c(c2)CN(C2CCC(=O)NC2=O)C3=O)n2cncc2c1)c1ccccc1Cl` (stereo not drawn) [Example 23, 3-(5-(7-(((1-(2-chlorophenyl)ethyl)amino)methyl)imidazo[1,5-a]pyridin-5-yl)-1-oxoisoindolin-2-yl) piperidine-2,6-dione] had an IC50 on CRBN/DDB1 of 1000 to 5000 nM. At IKZF2, this molecule gave a DC50 of 10 to 100 nM and a Dmax of 20 to 40%.

The molecule `O=C1CCC(N2Cc3cc(-c4cc(CNCc5cccc6ccccc56)cc5cncn45)ccc3C2=O)C(=O)N1` (stereo not drawn) [Example 24, 3-(5-(7-(((naphthalen-1-ylmethyl)amino)methyl)imidazo[1,5-a]pyridin-5-yl)-1-oxoisoindolin-2-yl) piperidine-2,6-dione] came in with an IC50 on CRBN/DDB1 of 1000 to 5000 nM. At IKZF2, this molecule came in with a DC50 of 10 to 100 nM and a Dmax of 20 to 40%.

`Cn1ccc2cccc(CNCc3cc(-c4ccc5c(c4)CN(C4CCC(=O)NC4=O)C5=O)n4cncc4c3)c21` (stereo not drawn) [Example 25]: the IC50 at CRBN/DDB1 fell in the range of 100 to 500 nM. Moreover, at IKZF2, the DC50 is over 1000 nM and the Dmax is under 20%.

On CRBN/DDB1, `O=C1CCC(N2Cc3c(ccc(-c4cc(CN5CCCC5)cc5cncn45)c3F)C2=O)C(=O)N1` (stereo not drawn) [Example 27, 3-(4-fluoro-1-oxo-5-(7-(pyrrolidin-1-ylmethyl)imidazo[1,5-a]pyridin-5-yl)isoindolin-2-yl) piperidine-2,6-dione] gave an IC50 of 500 to 1000 nM. For the same molecule, at IKZF2, the DC50 was in the range of 10 to 100 nM and the Dmax lay within 40 to 60%.

With `COc1c(-c2cc(CN3CCCC3)cc3cncn23)ccc2c1CN(C1CCC(=O)NC1=O)C2=O` (stereo not drawn) [Example 31, 3-(4-methoxy-1-oxo-5-(7-(pyrrolidin-1-ylmethyl)imidazo[1,5-a]pyridin-5-yl)isoindolin-2-yl) piperidine-2,6-dione], the IC50 at CRBN/DDB1 lay in the range of 100 to 500 nM. On IKZF2, this molecule registered a DC50 of over 1000 nM and a Dmax of under 20%.

As to `Cn1cnc2c(-c3ccc4c(c3)CN(C3CCC(=O)NC3=O)C4=O)cc(CNCCc3ccccc3Cl)cc21` (stereo not drawn) [Example 51, 3-(5-(6-(((2-chlorophenethyl)amino)methyl)-1-methyl-1H-benzo[d]imidazol-4-yl)-1-oxoisoindolin-2-yl) piperidine-2,6-dione], on CRBN/DDB1, the IC50 lay in the range of 100 to 500 nM. Besides, at IKZF2, the DC50 was over 1000 nM and the Dmax lay within 20 to 40%.

At CRBN/DDB1, `O=C1CCC(N2Cc3cc(-c4ncc5ccc(CN6CCCC6)cn45)ccc3C2=O)C(=O)N1` (stereo not drawn) [Example 53, 3-(1-oxo-5-(6-(pyrrolidin-1-ylmethyl)imidazo[1,5-a]pyridin-3-yl)isoindolin-2-yl) piperidine-2,6-dione] yielded an IC50 of 5000 to 10000 nM. On IKZF2, this molecule came in with a DC50 of over 1000 nM and a Dmax of 20 to 40%.
